# Results published in patent US20220332758A1, “PEPTIDE-BASED COMPOSITIONS AND METHODS FOR TREATING ALZHEIMER'S DISEASE” (Board of Regents, The Universityof Texas System, priority 2019, published 2022).
# Entries after “also recorded” stand apart in the source; their conditions may differ.
# Tests used:
# human 26S proteasome = target: T1, human 26S proteasome (Homo sapiens, UniProt P25787+P60900); assay: Chymotrypsin-like activity of purified human 26S proteasome, Suc-LLVY-MCA substrate; format: biochemical; settings: in vitro
# T1 construct: purchased Boston Biochemicals (Boston Biochem)
# [1] = target: T2, α face pockets of the 20S core proteasome (Homo sapiens, UniProt P25787+P60900); assay: Competition of TAT peptides with Rpt C-terminal tail peptides for α face pockets (ChT-L activity of 20S); format: biochemical; settings: for enhanced activation with Rpt tails: 1 μM Rpt peptide; for competition with Rpt tail peptides: 1 μM Rpt peptide added before the TAT peptide
# T2 construct: purified from erythrocytes; purchased Boston Biochem, Inc. or Enzo Life Sciences, Inc; host or cells: human erythrocytes
# Source text: As mentioned herein, the binding pockets on the α face accept “anchors” from natural protein ligands of the 20S core. […] The 10-residue Rpt-derived C-terminal “tail” peptides (“Rpt peptides”) can be used as competitors with the Rpt subunits or with small allosteric ligands. Importantly, the Rpt peptides interject between the subunits with their C-termini, whereas TAT peptides, according to the modeling, use their N-termini for this purpose. To test the specificity of interactions between TAT compounds and the α face, competition experiments were performed. The 20S core was challenged with selected TAT compounds after treatment with Rpt peptides. Peptides of Rpt2 ([…]; SEQ ID NO: 10), Rpt3 ([…]; SEQ ID NO: 11), Rpt5 ([…]; SEQ ID NO: 12) and Rpt6 ([…]; SEQ ID NO: 13) subunits were selected, docking in α3/α4, α1/α2, α5/α6 and α2/α3 pockets, respectively. Tails of Rpt2, 3, and 5 display the canonical HbYX motif, whereas the LeuTrpLys C-terminus of Rpt6 may be considered “pseudo-HbYX”, with a bulky Trp replacing Tyr. Results of the competition experiments are presented as radar plots in FIG. 15. […] This pocket also emerged as the major binding site for (1) and (8). However, these compounds likely weakly competed with the Rpt2 tail for binding to the α3/α4 pocket as well. The α3/α4 pocket seemed to be favored by (6). […] These complex patterns point at the importance of allosteric effects between the α face ligands, the gate and the catalytic chamber.
# Determination of Proteasome Activity. Human housekeeping core (20S) proteasome purified from erythrocytes was purchased from Boston Biochem, Inc. (Cambridge, Mass.) or from Enzo Life Sciences, Inc. (Farmingdale, N.Y.). Multiple batches of the proteasomes were used and performed reproducibly. The stock proteasome was diluted to 0.2 mg/mL working solution in “dilution buffer” (50 mM Tris/HCl, pH 8, 20% glycerol). The following model peptide substrates, releasing fluorescent 7-amino-4-methylcoumarin (AMC) reporter group after cleavage, were used: succinyl-LeuLeuValTyr-AMC (SEQ ID NO: 14) (for the ChT-L peptidase; SucLLVY-AMC; Bachem Bioscience Inc., Philadelphia, Pa.), butoxycarbonyl-LeuArgArg-AMC (T-L; Bachem Bioscience Inc., Philadelphia, Pa.) and carbobenzoxy-LeuLeuGlu-AMC (PGPH; Enzo Life Sciences Inc., Farmingdale, N.Y.). The substrates were used at concentration of 50 μM (ChT-L) or 100 μM (T-L, PGPH). Free AMC (Sigma-Aldrich, St. Louis, Mo.) was used as the standard. The C-terminal peptides derived from Rpt2, Rpt3, Rpt5 and Rpt6 were synthesized (standard solid-phase peptide chemistry) and purified to at least 98% purity by GenScript (Piscataway, N.J.). The TAT peptides, Rpt peptides (except Rpt6) and the peptide substrates were dissolved in anhydrous dimethylsulfoxide (DMSO; Sigma-Aldrich, St. Louis, Mo.) and such stock solutions were stored at −20° C. The total concentration of DMSO in final reaction mixtures never exceeded 3% (vol/vol). The Trp (tryptophan)-containing Rpt6 peptide was dissolved in ultrapure water and stored at −20° C., protected from light. The reaction was carried out in 96-well plates, in 100 μL of reaction mixture that consisted of 45 mM Tris/HCl, pH 8, 100 mM KCl, 1 mM EDTA (reaction buffer) and a fluorogenic peptide substrate, to which 200 ng (nearly […]) of proteasome were added. The addition of KCl/EDTA (ethylenediaminetetraacetic acid) to reaction buffer assured latency of the core proteasome. The proteasome was preincubated with a substrate for 10 min at room temperature, then 1 μL of DMSO or a desired concentration of a TAT peptide in 1 μL of DMSO were added. After mixing, the plate was transferred to a Fluoroskan Ascent plate reader (Thermo Fisher Scientific Inc., Waltham, Mass.) for 1 h (37° C.), with fluorescence readouts once per minute. To test the competition with Rpt derived peptides, the Rpt peptide (1 μM) was added before the TAT peptide to the reaction mixture. […]
# Stability in human serum = format: in vitro ADME
Compound,activation of 26S proteasome (in words) (human 26S proteasome),enhanced activation with Rpt tails [1],competition with Rpt tail peptides [1],stability in serum (in words) (Stability in human serum),half-life (Stability in human serum) [h]
NCCCCC(N)C(=O)NC(CCCCN)C(=O)NC(CCCCN)C(=O)Nc1cc(NC(=O)C(CCCCN)NC(=O)C(CCCCN)NC(=O)C(N)CCCCN)cc(C(=O)NC(CCCCN)C(=O)NC(CCCCN)C(=O)NC(CCCCN)C(=O)O)c1 (centres unmarked) [(8)],excellent activator,"enhanced activation in the presence of one of Rpt tails, namely Rpt5 or Rpt6",weakly negative score for the Rpt2 tail to the presumed major competitor Rpt3,rapidly modified from triple-lysines to double-lysines,–
"N=C(N)NCCCC(NC(=O)CN)C(=O)NC(CCCCN)C(=O)NC(CCCCN)C(=O)NC(CCCNC(=N)N)C(=O)NC(CCCNC(=N)N)C(=O)NC(CCC(N)=O)C(=O)N1Cc2ccccc2C[C@H]1C(=O)N1C(C(=O)NC(CCCNC(N)N)C(=O)N2CCCC2C(=O)NC(CO)C(=O)O)CC2CCCCC21 (some centres unmarked) [(5), GRKKRRQ-TOD-RPS]",strongly activate,"enhanced activation in the presence of one of Rpt tails, namely Rpt5 or Rpt6",the Rpt3 peptide (α1/α2 pocket) was its sole competitor; also recorded: competed fairly specifically with Rpt3 tail,–,~2
